Where “and” joins values, the source holds several entries; their conditions need not be identical. Identical values can stand only once. Entries after “also recorded” stand apart in the source; their conditions may differ. Like-named read-outs stand apart in the source and are kept apart here.
Key:
[1] = test system: Salmonella typhimurium ATCC 14028 attached to human buccal epithelial cells; assay type: cell-based
Procedure: Studies were conducted on the attachment of Salmonella typhimurium to human buccal epithelial cells using the modified procedure of Boussard et al., International J. Pharmaceutics 53: 253-256 (1989). In this study, the activities of cationic and anionic surfactant compounds as well as certain chelating agents were compared on the detachment of S. typhimurium from epithelial cells.
To this end, bacteria were grown on nutrient agar for 16 hours at 37° C. The cells were suspended in 0.008 M phosphate buffered saline (PBS) at pH 7.2 and washed two times at 4500 rpm for 10 minutes. The last suspension was diluted in PBS to obtain a cell concentration of 0.5 to 1×10^9 cells/ml. Human epithelial cells were obtained by swabbing the buccal surface of a healthy, nonsmoking donor. […] The number of living cells was estimated and the suspension diluted to 0.5 to 1×10^5 cells/ml.
Next, the suspension of the human buccal cells was mixed with an equal volume of the bacterial suspension (3.0 ml), or PBS (0.8 ml). Contact was allowed for 1.5 hours at 35° C. under agitation. The mixtures were then centrifuged for 10 minutes at 4500 rpm. Each suspension, 1.0 ml, was transferred into Eppendorf vials and washed with PBS at 1500 rpm for 10 minutes. After the washing, the cells were treated with 1.0 ml PBS or 1.0 ml of the test chemical solution. Treatment was performed by suspending and vortexing on a low speed for 30 seconds followed by centrifugation at 1500 rpm for 10 minutes.
After the treatment, the cells were washed once with PBS and then 20 μl of erythrosin B was added to each vial. The suspension was centrifuged at 1500 rpm for 10 minutes, and the cells were washed twice under the same conditions. The final pellet was suspended in 300 μl of PBS. This suspension was spread out onto microscope slides and dried overnight at room temperature. After counter staining with methylene blue, the slides were microscopically examined under oil immersion.

[2] = test system: Salmonella typhimurium on chicken skin; assay: Effect of surfactants on Salmonella attached to chicken skin, drumsticks (Tables F1-F4)
Procedure: The following experiments utilizing chicken legs were conducted to determine the killing potential of a variety of surfactants against Salmonella on the skin and free in solutions. To this end, chicken legs obtained from the Department of Agriculture at the University of Arkansas, Fayetteville, were incubated for thirty minutes at room temperature with a 1:5000 dilution of Salmonella typhimurium. The chicken legs were removed five at a time and then rinsed twice in tap water to remove the unattached and excess Salmonella. The rinse water was sampled, diluted, and then plated onto XLD pour plates. […] The chicken legs were then removed and rinsed twice in tap water to remove the released Salmonella and excess chemicals. Rinses were then sampled, diluted, and then plated onto XLD pour plates.
The chicken legs were then individually washed with 100 ml sterile double distilled water, and then shaken fifty times. Samples of the wash H2 O were diluted and plated onto XLD pour plates. The chicken legs were further swabbed after the washing step above. The swabs were then plated onto the XLD plates. A set of wash samples were enriched with TT Broth Base Hajna and then plated onto XLD plates.
All of the samples were plated in 1 ml aliquots onto XLD pour plates. A positive control sample incubated in sterile double distilled water at 4° C. was run for each of the aforementioned conditions. Treatments occurred at both 4° C. and 25° C. The data is reported as the mean number of CFU/ml. The ratio in the table represents the number of chicken legs out of a sample of ten chicken legs producing the notated number of colonies, as indicated by the +, ++, +++, or ++++.

[3] = test system: Salmonella typhimurium on chicken skin; assay: Prevention of attachment of Salmonella on excised chicken skin (Table F5); conditions: rinse water; 30 minutes at room temperature
Procedure: To determine the ability of surfactants to inhibit attachment or produce detachment of Salmonella, the following experiment was conducted. A hole was bored into the bottom of a 150 ml specimen cup. Chicken skin was excised from a drum stick and then placed over the cap of the specimen cup, and then the cap was screwed on. S. typhimurium was diluted 1:5000 with PBS or a surfactant. The surfactants were diluted appropriately. The skin was then inoculated with the solution containing the S. typhimurium and the surfactant for 30 minutes at room temperature.
Following incubation, the skin was washed. The rinse water was diluted appropriately in PBS and then plated onto XLD pour plates. The S. typhimurium was counted and reported as CFU/ml. The skin was swabbed so as to remove any remaining S. typhimurium using a nitroellulose lift and the CFU's/ml on the lift were also counted.

[4] = test system: Salmonella typhimurium ATCC 14028 attached to human buccal epithelial cells; assay: microbe, parasite or virus in culture; assay type: cell-based; conditions: for adherence, mean value of attached bacteria: Table A-3
Procedure: Additional studies on the detachment of Salmonella typhimurium from human buccal epithelial cells were conducted.
S. typhimurium ATCC 14028 was grown in nutrient broth (BBL Microbiology system, Cockeysville, Md.) for 16 hours at 37° C. The cells were centrifuged and washed twice with 0.008 M phosphate buffered saline (PBS, at pH 7.2) at 4500 rpm for 10 minutes. The last suspension was diluted in PBS to obtain a cell concentration 0.5 to 1×10^9 cells/ml using spectrophotometric measurement. Human epithelial cells were obtained by swabbing the buccal surface of a healthy, nonsmoking donor. […] The number of living cells was estimated and the suspension was diluted to 0.5 to 1×10^5 cells/ml.
The suspension of the human buccal cells was mixed with an equal volume of the bacterial suspension (3.0 ml), or PBS (0.8 ml) in 10 ml Erlenmeyer flasks. Contact was allowed for 1.5 hours at 35° C. under agitation. After incubation, 1.0 ml of each suspension was transferred into an Eppendorff vial, centrifuged at 3000 rpm for 10 minutes, and washed with PBS. The cells were treated with 1.0 ml PBS or 1.0 ml of the test chemical solution. Treatment was performed by suspending, gently vortexing, and centrifuging at 1500 rpm for 10 minutes. After the treatment, the cells were washed and placed on microscopic slides for examination.
EC50 represents the inverse measurement of the potency of a compound. EC50 values were determined by a nonlinear regression of the detachment effect versus the cationic surfactant concentration data from Table A-3.

[5] = test system: Salmonella typhimurium ATCC 14028; assay: Minimum growth inhibitory concentration, macrodilution; assay type: cell-based; conditions: Mueler Hinton broth, macrodilution (NCCLS)
Procedure: Minimum growth inhibitory concentrations (MICs) of quaternary ammonium compounds and Na2 -EDTA for Salmonella were determined using Mueler Hinton broth (BBL Microbiology system, Cockeysville, Md.) and by the macrodilution method established by the National Committee for Clinical Laboratory Standards (NCCLS). Escherichia coli ATCC 25922 and Staphylococcus aureus ATCC 29213 were included in each assay as reference strains.

[6] = test system: Salmonella typhimurium ATCC 14028; assay: Effect on viability of Salmonella in suspension (Tables D-1 to D-3); assay type: cell-based
Procedure: EC50 values for four of the compounds were calculated from the bactericidal activity of the compounds as a function of molar concentration by a nonlinear regression algorithm.
In addition to the quaternary ammonium compounds, the antimicrobial activities of chelating agents Na2 -EDTA and EGTA were investigated. Na2 -EDTA was purchased from the Sigma Chemical Company (St. Louis, Mo.). Na2 -EDTA was dissolved in 0.04 M PPB prior to the assay and further dilutions were made in the same buffer.
EGTA was purchased from the Aldrich Chemical Company (Milwaukee, Wis.). EGTA was dissolved in 0.04 M PPB according to the procedure described by Harafuji and Ogawa (J. Biochem. 87:1305-1312 (1980)). After heating EGTA for 15 minutes at 80° C., the pH was adjusted to 7.0 by addition of NaOH. EGTA was filter-sterilized using a 0.2 μm Acro disc filter (Gelman Sciences; Ann Arbor, Mich.) prior to the assay. Further dilutions were made in sterile PPB.

CCCCCCCCCCCCOS(=O)(=O)[O-].[Na+] [SDS, sodium dodecylsulfate, reference compound]
adherence, mean value of attached bacteria ([1]; 25 ug/ml, Table A-1): 43 ± 25
adherence, mean value of attached bacteria ([1]; 50 ug/ml, Table A-1): 26 ± 19
cytotoxicity to buccal epithelial cells ([1]; 500 ug/ml, Table A-1): cytotoxic
Enrichment, chicken legs out of ten ([2]; 0.1%, 4° C.): 10/10
Rinse H2O ([2]; 0.1%, 4° C.): ++ (11-100)
Surfactant Solution ([2]; 0.1%, 4° C.): ++ (11-100)
Swabs, chicken legs producing the notated number of colonies ([2]; 0.1%, 4° C.): 10/10
Swabs, colonies ([2]; 0.1%, 4° C.): ++ (11-100)
Wash H2O, chicken legs producing the notated number of colonies ([2]; 0.1%, 4° C.): 10/10
Wash H2O, colonies ([2]; 0.1%, 4° C.): ++ (11-100)
Enrichment, chicken legs out of ten ([2]; 0.5%, 4° C.): 10/10
Rinse H2O ([2]; 0.5%, 4° C.): + (1-10)
Surfactant Solution ([2]; 0.5%, 4° C.): ++ (11-100)
Swabs, chicken legs producing the notated number of colonies ([2]; 0.5%, 4° C.): 10/10
Swabs, colonies ([2]; 0.5%, 4° C.): ++ (11-100)
Wash H2O, chicken legs producing the notated number of colonies ([2]; 0.5%, 4° C.): 10/10
Wash H2O, colonies ([2]; 0.5%, 4° C.): ++ (11-100)
Enrichment, chicken legs out of ten ([2]; 1.0%, 4° C.): 10/10
Rinse H2O ([2]; 1.0%, 4° C.): + (1-10)
Surfactant Solution ([2]; 1.0%, 4° C.): + (1-10)
Swabs, chicken legs producing the notated number of colonies ([2]; 1.0%, 4° C.): 10/10
Swabs, colonies ([2]; 1.0%, 4° C.): ++ (11-100)
Wash H2O, chicken legs producing the notated number of colonies ([2]; 1.0%, 4° C.): 10/10
Wash H2O, colonies ([2]; 1.0%, 4° C.): ++ (11-100)
CFU/ml on XLD agar [3]: 4 × 10^2 CFU/ml

CCCCCCCCCCCCCCCC[N+](C)(C)C.[Br-] [HTMAB, hexadecyltrimethylammonium bromide]
adherence, mean value of attached bacteria ([1]; 5 ug/ml, Table A-1): 49 ± 21
adherence, mean value of attached bacteria ([1]; 50 ug/ml, Table A-1): 48 ± 20
cytotoxicity to buccal epithelial cells ([1]; 500 ug/ml, Table A-1): cytotoxic
adherence, mean value of attached bacteria ([4]; 100 ug/ml): 82 ± 35
adherence, mean value of attached bacteria ([4]; 175 ug/ml): 57 ± 33
adherence, mean value of attached bacteria ([4]; 250 ug/ml): 33 ± 19
EC50 ([4]; Salmonella enterica, Epithelial cell, read-out: EC50 (±SD), detachment): 333 ± 14 µM
MIC [5]: 60 µg/mL
MIC ([5]; Salmonella enterica): 64 µg/mL
bacterial viability ([6]; 10 ug/ml, Table D-1): 1.06 ± 0.08 × 10^9 CFU/ml and 1.67 ± 0.12 × 10^9 CFU/ml
bacterial viability ([6]; 20 ug/ml, Table D-1): 3.23 ± 0.38 × 10^8 CFU/ml and 6.35 ± 1.03 × 10^8 CFU/ml
EC50 ([6]; Salmonella enterica, read-out: EC50 (±SD), effect on viability in suspension): 48 ± 0.03 µM
Enrichment, chicken legs out of ten ([2]; 0.1%, 25° C.): 5/10
Rinse H2O ([2]; 0.1%, 25° C.): + (1-10)
Surfactant Solution ([2]; 0.1%, 25° C.): 0 CFU/ml
Swabs, chicken legs producing the notated number of colonies ([2]; 0.1%, 25° C.): 6/10
Swabs, colonies ([2]; 0.1%, 25° C.): + (1-10)
Wash H2O, colonies ([2]; 0.1%, 25° C.): 0 CFU/ml
Enrichment, chicken legs out of ten ([2]; 1.0%, 25° C.): 0/10
Rinse H2O ([2]; 1.0%, 25° C.): 0 CFU/ml
Surfactant Solution ([2]; 1.0%, 25° C.): 0 CFU/ml
Swabs, chicken legs producing the notated number of colonies ([2]; 1.0%, 25° C.): 3/10
Swabs, colonies ([2]; 1.0%, 25° C.): + (1-10)
Wash H2O, colonies ([2]; 1.0%, 25° C.): 0 CFU/ml
Enrichment, chicken legs out of ten ([2]; .01%, 25° C.): 5/10
Rinse H2O ([2]; .01%, 25° C.): + (1-10)
Surfactant Solution ([2]; .01%, 25° C.): 0 CFU/ml
Swabs, chicken legs producing the notated number of colonies ([2]; .01%, 25° C.): 9/10
Swabs, colonies ([2]; .01%, 25° C.): + (1-10)
Wash H2O, chicken legs producing the notated number of colonies ([2]; .01%, 25° C.): 10/10
Wash H2O, colonies ([2]; .01%, 25° C.): ++ (11-100)

O=C(O)CN(CCN(CC(=O)O)CC(=O)O)CC(=O)O [Na2 -EDTA, disodium ethylenectiaminetetraacetate, reference compound]
adherence, mean value of attached bacteria ([1]; 500 ug/ml, Table A-2): 43 ± 21
adherence, mean value of attached bacteria ([1]; 1250 ug/ml, Table A-2): 22 ± 12
adherence, mean value of attached bacteria ([1]; 2500 ug/ml, Table A-2): 35 ± 18
adherence, mean value of attached bacteria ([1]; 10,000 ug/ml, Table A-2): 31 ± 14
effect on bacteria attached to the epithelial cells (in words) ([1]; chelating agents, Na2-EDTA at 1250 μg/ml): highly effective
MIC ([5]; Salmonella enterica): 625 µg/mL
bacterial viability ([6]; 1,250 μg/ml, Table D-3): 9.48 ± 0.63 × 10^8 CFU/ml
bacterial viability ([6]; 2,500 μg/ml, Table D-3): 9.68 ± 0.16 × 10^8 CFU/ml
bacterial viability ([6]; 5,000 μg/ml, Table D-3): 9.89 ± 0.37 × 10^8 CFU/ml
bactericidal effect against S. typhimurium (in words) ([6]; viability testing in suspension): ineffective; also recorded: no bactericidal effect

From US5366983A, “Use of quaternary ammonium compounds to remove salmonella contamination from meat products” (The Board of Trustees of The University of Arkansas, priority 1992, dated 1994)
